The results in this text go back to patent publication US20040204590A1, “Ep4 receptor agonist, compositions and methods thereof” (priority 2001, published 2004).

Experiment [1] concerns RCT-3 cells. Nature of the experiment: Effect on intracellular cAMP in RCT-3 cells. It is filed as cell-based, rat. The protocol:
(§1) RCT-1 and RCT-3 are clonal cell lines immortalized by SV-40 large T antigen from cells released from fetal rat calvair by a cmbination collagenase/hyaluronidase digestion. RCT-1 cells, derived from cells released during the first 10 minutes of digestion (fraction I), are cultured in RPMI 1640 medium (BRL) with 10% fetal bovine serum and 0.4 mg/ml G418 (BRL). These cells differentiate and express osteoblastic features upon retinoic acid treatment. RCT-3 cells, immortalized from osteoblast-enriched fraction […] cells, are cultured in F-12 medium (BRL) with 5% Fetal bovine serum and 0.4 mg/ml G418. TRAB-11 cells are also immortalized by SV40 large T antigen from adult rat tibia and are cultured in RPMI 1640 medium with 10% FBS and 0.4 mg/ml G418. ROS 17/2.8 rat osteosarcoma cells are cultured in F-12 containing 5% FBS. Osteoblast-enriched (fraction III) primary fetal rat calvaria cells are obtained by collagenase/hyaluronidase digestion of calvariae of 19 day-old rat fetuses. See Rodan et al., Growth stimulation of rat calvaria osteoblastic cells by acidic FGF, Endocrinology, 121, 1919-1923 (1987), which is incorporated by reference herein in its entirety. Cells are released during 30-50 minutes digestion (fraction III) and are cultured in F-12 medium containing 5% FBS. […]

The test system of experiment [2] is RP-1 periosteal cells. Nature of the experiment: EP4 and EP2 mRNA expression in RP-1 periosteal cells (Northern blot). It is filed as cell-based, rat. The note with it: RP-1 cells. The method, then:
RP-1 periosteal cells are spontaneously immortalized from primary cultures of periosteal cells from tibae of 4-week old Sprague-Dawley rats and are cultured in DMEM (BRL, Gaithersburg, Md.) with 10% fetal bovine serum (JRH Biosciences, Lenexa, Kans.).
Total RNA is extracted from the tibial metaphysis or diaphysis and calvaria using a guanidinium isothiocyanate-phenol-chloroform method after pulverizing frozen bone samples by a tissue homogenizer. See P. Chomczynski et al., Single-step method of RNA isolation by acid guanidium thiocyanate-phenol-chloroform extraction., Analyt Biochem, 162, 156-159 (1987), which is incorporated by reference herein in its entirety. RNA samples ([…]) are separated on 0.9% agarose/formaldehyde gels and transferred onto nylon membranes (Boehringer Mannheim, Germany). Membranes are prehybridized in Hybrisol I (Oncor, Gaithersburg, Md.) and 0.5 mg/ml sonicated salmon sperm DNA (Boehringer) at 42° C. for 3 hours and are hybridized at 420C with rat EP2 and mouse EP4 cDNA probes labeled with [^32P]-dCTP (Amersham, Buckinghamshire, UK) by random priming using the rediprime kit (Amersham). After hybridization, membranes are washed 4 times in 2×SSC+0.1% SDS at room temperature for a total of 1 hour and once with 0.2×SSC+0.1% SDS at 550C for 1 hour and then exposed to Kodak XAR 2 film at −70° C. using intensifying screens. […]

The subject of experiment [3] is EP4 expression in bone marrow cells. Nature of the experiment: Localization of EP4 mRNA in bone tissue by in situ hybridization. It is filed as in vivo, rat. The note with it: rats, single anabolic dose. The protocol: (§2) For mRNA localization experiments, 5-week old Sprague-Dawley rats (Charles River) are euthanized by CO2, their tibiae and calvariae are excised, cleaned of soft tissues and frozen immediately in liquid nitrogen. For EP4 regulation experiments, 6-week old rats are given a single injection of either vehicle (7% ethanol in sterile water) or an anabolic dose of PGE2 (Cayman Chemical, Ann Arbor, Mich.), 3-6 mg/kg in the same vehicle) intraperitoneally. Animals are euthanized at several time points post-injection and their tibiae and calvariae, as well as samples from lung and kidney tissues are frozen in liquid nitrogen.
Frozen tibiae are sectioned coronally at […] thickness and sections are mounted on charged slides (Probe On Plus, Fisher Scientific, Springfield, N.J.) and are kept at −70° C. until hybridization. cRNA probes are labeled with ^35S-UPgS (ICN, Costa Mesa, Calif.) using a Riboprobe II kit (Promega Madison, Wis.). Hybridization is performed overnight at 50° C. See M. Weinreb et al., Different pattern of alkaline phosphatase, osteopontin and osteocalcin expression in developing rat bone visualized by in-situ hybridization, J. Bone Miner Res., 5, 831-842 (1990) and D. Shinar et al., Expression of alphav and beta3 integrin subunits in rat osteoclasts in situ, J. Bone Miner. Res., 8, 403-414 (1993), which are both incorporated by reference herein in their entirety. […]

Experiment [4] deals with TRAB-11 cells. The experiment can be described thus: Effect on intracellular cAMP in TRAB-11 cells. It is filed as cell-based, rat. The protocol:
as §1

The test system of experiment [5] is EP4 mRNA in bone tissue. Nature of the experiment: EP4 and EP2 mRNA levels in bone tissue of injected rats (Northern blot). It is filed as in vivo, rat. The note with it: injected 3-6 mg/Kg. The method, then:
as §2
Total RNA is extracted from the tibial metaphysis or diaphysis and calvaria using a guanidinium isothiocyanate-phenol-chloroform method after pulverizing frozen bone samples by a tissue homogenizer. See P. Chomczynski et al., Single-step method of RNA isolation by acid guanidium thiocyanate-phenol-chloroform extraction., Analyt Biochem, 162, 156-159 (1987), which is incorporated by reference herein in its entirety. RNA samples ([…]) are separated on 0.9% agarose/formaldehyde gels and transferred onto nylon membranes (Boehringer Mannheim, Germany). […]

Experiment [6] concerns RCT-3 cells. The experiment can be described thus: EP4 mRNA expression in RCT-3 cells (Northern blot). It is filed as cell-based, rat. The method, then:
as §1

Experiment [7] has as its system ROS 17/2.8 rat osteosarcoma cells. The experiment can be described thus: Effect on intracellular cAMP in ROS 17/2.8 cells. It is filed as cell-based. The method, then:
as §1

`CCCCC[C@H](O)/C=C/[C@H]1[C@H](O)CC(=O)[C@@H]1C/C=C\CCCC(=O)O` [PGE2]: the “effect on intracellular cAMP” value is recorded as “markedly induced” in experiment [1], “markedly induced” in experiment [4] and “no effect” in experiment [7]. In addition, the entries for the “EP4 mRNA levels” value in experiment [2] (10^−6 M) and in experiment [6] were “rapidly increases” and “no effect”, respectively. Also, the “EP2 mRNA expression” value in experiment [2] (before or after treatment) is on record as “not expressed”. The “expression of EP4 in bone marrow cells” value in experiment [3] is “increased”. Besides, the “EP4 mRNA levels in the tibial diaphysis” value in experiment [5] (five-week-old male rats) was “rapidly increased”. In addition, in experiment [5] (rats), the “EP2 mRNA in bone tissue” value was “does not induce”.
